pIC50: −log10 of the molar value.
What was measured:
[1] = target: T1, Glucocorticoid Receptor (GR) (Homo sapiens, UniProt P04150); experiment: GR Fluorescence Polarization Assay (PolarScreen Glucocorticoid Receptor Competitor Assay, Red); details: fluorescence polarization binding ranges
T1 construct: purchased Invitrogen P2893
T1 sequence (P04150 1-777): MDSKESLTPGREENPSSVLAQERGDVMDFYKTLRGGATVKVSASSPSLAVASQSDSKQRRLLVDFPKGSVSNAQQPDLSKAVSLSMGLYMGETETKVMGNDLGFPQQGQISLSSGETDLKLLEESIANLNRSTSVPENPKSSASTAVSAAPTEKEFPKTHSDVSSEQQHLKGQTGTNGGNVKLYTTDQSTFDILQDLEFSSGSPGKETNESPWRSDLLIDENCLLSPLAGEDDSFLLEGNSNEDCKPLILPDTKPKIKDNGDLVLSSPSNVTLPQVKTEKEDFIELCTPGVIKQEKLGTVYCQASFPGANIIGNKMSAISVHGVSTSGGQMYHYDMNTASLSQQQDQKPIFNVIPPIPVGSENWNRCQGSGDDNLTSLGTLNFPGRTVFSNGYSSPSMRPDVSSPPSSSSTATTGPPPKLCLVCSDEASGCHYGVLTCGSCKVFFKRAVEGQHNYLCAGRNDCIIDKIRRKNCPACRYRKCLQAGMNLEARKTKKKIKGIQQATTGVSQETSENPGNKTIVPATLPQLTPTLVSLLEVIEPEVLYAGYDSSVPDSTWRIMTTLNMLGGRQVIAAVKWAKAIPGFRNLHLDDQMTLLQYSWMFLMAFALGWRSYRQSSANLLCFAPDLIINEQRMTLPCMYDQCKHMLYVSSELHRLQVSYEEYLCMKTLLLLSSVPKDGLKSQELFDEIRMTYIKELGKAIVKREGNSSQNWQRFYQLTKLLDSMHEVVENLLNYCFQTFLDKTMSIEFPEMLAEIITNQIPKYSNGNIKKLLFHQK
How it was run: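 Compound displacement of a red-labelled glucocorticoid from GR, read as fluorescence polarization. Tracer, receptor and 1:4-serially diluted compound were left together overnight at 4° C in the kit assay buffer.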

[2] = system: IL-6; experiment: A549 Cell Assay to Measure Inflammation Markers (inhibition of IL-1β-induced IL-6); assay type: cell-based; details: Homo sapiens; A549 cells; read-out: A549 cell assay
How it was run: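 A549 cells pre-incubated 1 h with compound (10-point dilution, 0.1% DMSO final) in charcoal-stripped serum medium, then stimulated 4 h with 1 ng/mL IL-1β at 37° C. Supernatant IL-6 measured by MSD immunoassay; IC50 and Emax relative to 1 μM prednisolone as 100% inhibition; viability checked by CellTiter-Glo.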

[3] = system: OCN; experiment: MG-63 Cell Assay to Measure Bone Markers (inhibition of Vitamin K/Vitamin D-induced OCN); assay type: cell-based; details: Homo sapiens, MG63 cells
Description: MG-63 Cell Assay to Measure Bone Markers
MG-63 cells were cultured in culture media containing ascorbic acid (DMEM/F12 supplemented with 10% FBS, 1% HEPES, 100 U/mL-100 μg/mL Pen-Strep, and 100 μg/mL of ascorbic acid) for, minimally, 1 week before study. MG-63 cells were seeded (4E4 cells/well) in 96-well assay plates in culture medium (200 μL/well.) After overnight culture in an incubator set to 37° C., 4.9% CO2, and 90% humidity, media was removed from adherent cells by aspiration and replaced with 100 μL/well assay medium, DMEM/F12 supplemented with 5% Charcoal Stripped Serum, 1% HEPES, 100 U/mL-100 μg/mL Pen-Strep, and 100 μg/mL of ascorbic acid. Compounds were prepared with DMSO and serial diluted (1:3, 1:4, or 1:5) with DMSO in dilution plate(s) to give 10 dilution points for each compound tested. Further dilution (1:250) of compound was made into assay medium and 50 μL/well diluted drug or DMSO/media control was applied to cells. After a 1 h pre-incubation in a temperature, CO2, and humidity controlled incubator, set to 37° C., 50 μL/well of 40 nM Vitamin K and 400 nM Vitamin D that were diluted in assay media were applied to plates. Assay plates, with a final volume of 200 μL/well and final concentrations of 0.1% DMSO, 10 nM Vitamin K, and 100 nM Vitamin D, were returned to incubator for overnight culture. Next, plates were spun at 183 g (1000 rpm in Beckman/Coulter Allegra 6KR centrifuge) for 10 min. Cell-free supenatant (150 μL/well) was collected and OCN was measured by MSD kit, following protocol of manufacturer, and using MSD SECTOR Imager 6000 instrument. Potency of drug to inhibit OCN was determined using the percent reduction of measured OCN in wells with drug compared to control wells without drug, and relative to (100% inhibition) positive control sample of 10 μM prednisolone. Results were represented as IC50 and Emax values. To verify that viable cell numbers were similar across plate(s), and not confounding compound IC50 data interpretation, the remaining 50 μL/well of cells and media (after removal of supernatant) were used to run Cell Titer-Glo Assay per directions of manufacturer.

Compound | pIC50 [1] | pIC50 [2] | pIC50 [3]
CC[C@@]12CC[C@@](O)(COC)C[C@H]1CCCc1cc3c(cnn3-c3ccc(F)cc3)cc12 (single isomer, unassigned) [Example 7] | > 7.00 | > 7.00 | < 5.00
CCOC[C@]1(O)CC[C@@]2(CC)c3cc4cnn(-c5ccc(F)cc5)c4cc3CCC[C@@H]2C1 (single isomer, unassigned) [Example 9] | > 7.00 | 6.00 to 7.00 | < 5.00
COC[C@@]1(O)CC[C@@]2(Cc3ccccn3)c3cc4cnn(-c5ccc(F)cc5)c4cc3CCC[C@H]2C1 (single isomer, unassigned) [Example 12] | > 7.00 | > 7.00 | > 7.00
COC[C@]1(O)CC[C@]2(Cc3ccccn3)c3cc4cnn(-c5ccc(F)cc5)c4cc3CCC[C@@H]2C1 (single isomer, unassigned) [Example 13] | > 7.00 | > 7.00 | > 7.00
